The IC50 is the midpoint of a concentration-inhibition curve.

The values that follow come from patent US20250059185A1 (Hoffmann-La Roche Inc., priority 2021, published 2025).

MAGL, sequence (Q99685 whole entry, species assumed): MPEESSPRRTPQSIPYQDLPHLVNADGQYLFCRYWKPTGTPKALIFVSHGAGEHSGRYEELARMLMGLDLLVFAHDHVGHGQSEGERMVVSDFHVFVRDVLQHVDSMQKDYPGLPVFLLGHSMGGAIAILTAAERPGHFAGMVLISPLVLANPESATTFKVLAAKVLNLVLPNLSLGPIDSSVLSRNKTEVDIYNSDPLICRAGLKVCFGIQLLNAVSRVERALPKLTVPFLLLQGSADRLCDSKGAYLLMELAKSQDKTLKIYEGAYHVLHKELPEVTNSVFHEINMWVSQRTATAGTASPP

The assay deals with MAGL (Homo sapiens (Human), UniProt Q99685). The assay is described as follows: 2-AG assay (MAGL inhibitory activity, hydrolysis of 2-arachidonoylglycerol followed by mass spectrometry). Type of assay: biochemical. Conditions: 50 pM MAGL protein, 15 min pre-incubation, 30 min incubation at RT. The source says:
Compounds of formula (II) were profiled for MAGL inhibitory activity by determining the enzymatic activity by following the hydrolysis of the natural substrate 2-arachidonoylglycerol (2-AG) resulting in arachidonic acid, which can be followed by mass spectrometry. This assay is hereinafter abbreviated “2-AG assay”.
Compounds of formula (II) were profiled for MAGL inhibitory activity by determining the enzymatic activity by following the hydrolysis of the natural substrate 2-arachidonoylglycerol (2-AG) resulting in arachidonic acid, which can be followed by mass spectrometry. This assay is hereinafter abbreviated “2-AG assay”. The 2-AG assay was carried out in 384 well polypropylene assay plates. Compound dilutions were made in 100% DMSO in a polypropylene plate in 3-fold dilution steps to give a final concentration range in the assay from 12.5 μM to 0.8 pM. Compound dilutions were added to MAGL protein in assay buffer (50 mM TRIS, 1 mM EDTA, 0.01% (v/v) Tween-20, 2.5% (v/v) DMSO). After shaking, the plate was incubated for 15 min at RT. To start the reaction, 2-arachidonoylglycerol in assay buffer was added. The final concentrations in the assay was 50 pM for MAGL protein and […] 2-arachidonoylglyerol. After shaking and 30 min incubation at RT, the reaction was quenched by the addition of two assay volumes of acetonitrile containing 4 μM of d8-arachidonic acid. The amount of arachidonic acid formed was traced by an online SPE system (Agilent Rapidfire) coupled to a triple quadrupole mass spectrometer. A C18 SPE cartridge (Agilent G9205A) was used in an acetonitrile/water liquid setup. The mass spectrometer was operated in negative electrospray mode following the mass transitions 303.1→259.1 for arachidonic acid and 311.1→267.0 for d8-arachidonic acid. The activity of the compounds was calculated based on the ratio of intensities [arachidonic acid/d8-arachidonic acid].
With `C[C@@H]1c2nn(C)c(-c3cc(F)cc(F)c3)c2CCN1C(=O)c1ccnc(OCC2CNC(=O)O2)c1Cl` (stereo partly drawn) [Example 43, 5-[[3-Chloro-4-[(7R)-3-(3,5-difluorophenyl)-2,7-dimethyl-5,7-dihydro-4H-pyrazolo[3,4-c]pyridine-6-carbonyl]-2-pyridyl]oxymethyl]oxazolidin-2-one], the IC50 turned out to be 1340 nM. As for `COc1cccc(C(=O)N2CCc3c(nn(C)c3-c3cncc(CC(N)=O)c3)[C@@H]2C)c1Cl` [Example 18, 2-[5-[(7S)-6-(2-Chloro-3-methoxy-benzoyl)-2,7-dimethyl-5,7-dihydro-4H-pyrazolo[3,4-c]pyridin-3-yl]-3-pyridyl]acetamide], the figure is 3080 nM.

The compound `C[C@H]1c2nn(C)c(-c3cc(F)cc(F)c3)c2CCN1C(=O)c1ccc(CCC2CNC(=O)C2)cc1Cl` (stereo partly drawn) [Example 45, 4-[2-[3-Chloro-4-[(7S)-3-(3,5-difluorophenyl)-2,7-dimethyl-5,7-dihydro-4H-pyrazolo[3,4-c]pyridine-6-carbonyl]phenyl]ethyl]pyrrolidin-2-one] registered an IC50 of 99 nM. To `C[C@H]1c2nn(C)c(-c3cc(F)cc(F)c3)c2CCN1C(=O)c1ncn(-c2cc(Cl)cnc2O)n1` [Example 100, [1-(5-chloro-2-hydroxy-3-pyridyl)-1,2,4-triazol-3-yl]-[(7S)-3-(3,5-difluorophenyl)-2,7-dimethyl-5,7-dihydro-4H-pyrazolo[3,4-c]pyridin-6-yl]methanone] belongs 31.9 nM; to `COc1cccc(C(=O)N2CCc3c(nn(C)c3-c3cc(Cl)cc(CNS(C)(=O)=O)c3)[C@H]2C)c1Cl` [Example 2, N-[[3-Chloro-5-[(7R)-6-(2-chloro-3-methoxy-benzoyl)-2,7-dimethyl-5,7-dihydro-4H-pyrazolo[3,4-c]pyridin-3-yl]phenyl]methyl]methanesulfonamide], 1650 nM. `C[C@H]1c2nn(C)c(-c3cncc(C(F)(F)F)n3)c2CCN1C(=O)c1cc(F)cc(N2CC3(C2)CS(=O)(=O)C3)c1Cl` [Example 65, [2-chloro-3-(2,2-dioxo-2λ^6-thia-6-azaspiro[3.3]heptan-6-yl)-5-fluoro-phenyl]-[(7S)-2,7-dimethyl-3-[6-(trifluoromethyl)pyrazin-2-yl]-5,7-dihydro-4H-pyrazolo[3,4-c]pyridin-6-yl]methanone] yielded an IC50 of 2830 nM.

In turn, `C[C@H]1c2nn(C)c(-c3cc(F)cc(F)c3)c2CCN1C(=O)c1cc(Cl)cc(OC[C@H]2CNC(=O)O2)c1Cl` (single isomer, unassigned) [Example 109] yielded an IC50 of 371 nM. To `C[C@H]1c2nn(C)c(-c3cc(F)cc(F)c3)c2CCN1C(=O)c1cc(Cl)cc(OCC2CNC(=O)O2)c1Cl` (stereo partly drawn) [Example 107, 5-[[2,5-dichloro-3-[(7S)-3-(3,5-difluorophenyl)-2,7-dimethyl-5,7-dihydro-4H-pyrazolo[3,4-c]pyridine-6-carbonyl]phenoxy]methyl]oxazolidin-2-one] belongs 0.61 nM. The compound `C[C@H]1c2nn(C)c(-c3cc(F)cc(F)c3)c2CCN1C(=O)c1cc(F)cc(N2CC3(C2)CS(=O)(=O)C3)c1Cl` [Example 20, [2-Chloro-3-(2,2-dioxo-2λ^6-thia-6-azaspiro[3.3]heptan-6-yl)-5-fluoro-phenyl]-[(7S)-3-(3,5-difluorophenyl)-2,7-dimethyl-5,7-dihydro-4H-pyrazolo[3,4-c]pyridine-6-yl]methanone] gave an IC50 of 27 nM. This IC50 is about 44-fold higher than that of the compound before. `C[C@H]1c2nn(C)c(-c3cc(F)cc(F)c3)c2CCN1C(=O)c1cccc(OCC2CNC(=O)O2)c1Cl` (stereo partly drawn) [Example 110, 5-[[2-chloro-3-[(7S)-3-(3,5-difluorophenyl)-2,7-dimethyl-5,7-dihydro-4H-pyrazolo[3,4-c]pyridine-6-carbonyl]phenoxy]methyl]oxazolidin-2-one] had an IC50 of 2.09 nM. Take `COc1cccc(C(=O)N2CCc3c(nn(C)c3-c3nnc(C(F)(F)F)o3)[C@@H]2C)c1Cl` [Example 12, (2-Chloro-3-methoxy-phenyl)-[(7S)-2,7-dimethyl-3-[5-(trifluoromethyl)-1,3,4-oxadiazol-2-yl]-5,7-dihydro-4H-pyrazolo[3,4-c]pyridin-6-yl]methanone]: the IC50 turned out to be 390 nM.

For `C[C@H]1c2nn(C)c(-c3cc(F)cc(F)c3)c2CCN1C(=O)c1cc(Cl)cc(OC[C@@H]2CNC(=O)O2)c1Cl` (single isomer, unassigned) [Example 108], the IC50 worked out at 294 nM. As to `CC1c2nn(C)c(-c3cc(F)cc(F)c3)c2CCN1C(=O)c1cc(F)cc(C2=NOC(C)(C)C2)c1Cl` (stereo not drawn) [Example 28, [2-Chloro-3-(5,5-dimethyl-4H-isoxazol-3-yl)-5-fluoro-phenyl]-[3-(3,5-difluorophenyl)-2,7-dimethyl-5,7-dihydro-4H-pyrazolo[3,4-c]pyridin-6-yl]methanone], the IC50 turned out to be 385 nM. The IC50 values of the last two compounds are within 1.5-fold of each other. Regarding `C[C@H]1c2nn(C)c(-c3cc(Cl)cc(C4(C(N)=O)CC4)c3)c2CCN1C(=O)c1cc(F)cc(-c2c[nH]c(C#N)c2)c1Cl` [Example 71, 1-[3-chloro-5-[(7S)-6-[2-chloro-3-(5-cyano-1H-pyrrol-3-yl)-5-fluoro-benzoyl]-2,7-dimethyl-5,7-dihydro-4H-pyrazolo[3,4-c]pyridin-3-yl]phenyl]cyclopropanecarboxamide], half-maximal inhibition (IC50) was put at 2160 nM.

For the compound `CC1c2nn(C)c(-c3cc(F)cc(F)c3)c2CCN1C(=O)c1ccccc1Cn1ccnn1` (stereo not drawn) [Example 24, [3-(3,5-Difluorophenyl)-2,7-dimethyl-5,7-dihydro-4H-pyrazolo[3,4-c]pyridin-6-yl]-[2-(triazol-1-ylmethyl)phenyl]methanone], 1230 nM corresponded to half-maximal inhibition (IC50). As for `C[C@@H]1c2nn(C)c(-c3cc(Cl)cc(C4(NS(C)(=O)=O)CC4)c3)c2CCN1C(=O)c1cc(F)cc(CCc2c[nH]nn2)c1Cl` [Example 89, N-[1-[3-chloro-5-[(7R)-6-[2-chloro-5-fluoro-3-[2-(1H-triazol-4-yl)ethyl]benzoyl]-2,7-dimethyl-5,7-dihydro-4H-pyrazolo[3,4-c]pyridin-3-yl]phenyl]cyclopropyl]methanesulfonamide], the figure is 26.8 nM.

Consider `C[C@H]1c2nn(C)c(-c3cc(F)cc(F)c3)c2CCN1C(=O)c1cc(F)cc(-c2cc[nH]c(=O)c2)c1Cl` [Example 31, 4-[2-Chloro-3-[(7S)-3-(3,5-difluorophenyl)-2,7-dimethyl-5,7-dihydro-4H-pyrazolo[3,4-c]pyridine-6-carbonyl]-5-fluoro-phenyl]-1H-pyridin-2-one], for which half-maximal inhibition (IC50) was put at 3 nM. This IC50 is about 8.9-fold lower than that of the compound before. As for `CC1c2nn(C)c(-c3cc(F)cc(F)c3)c2CCN1C(=O)c1cc(F)cc(OCC2CNC(=O)C2)c1Cl` (single isomer, unassigned) [Example 39, 4-[[2-Chloro-3-[3-(3,5-difluorophenyl)-2,7-dimethyl-5,7-dihydro-4H-pyrazolo[3,4-c]pyridine-6-carbonyl]-5-fluoro-phenoxy]methyl]pyrrolidin-2-one], the IC50 is 169 nM.

Compound `COc1cccc(C(=O)N2CCc3c(nn(C)c3-c3cc(Cl)cc(CC(N)=O)c3)[C@@H]2C)c1Cl` [Example 14, 2-[3-Chloro-5-[(7S)-6-(2-chloro-3-methoxy-benzoyl)-2,7-dimethyl-5,7-dihydro-4H-pyrazolo[3,4-c]pyridin-3-yl]phenyl]acetamide] registered an IC50 of 41 nM. `C=S(N)(=O)c1cc(Cl)cc(-c2c3c(nn2C)C(C)N(C(=O)c2cc(F)cc(-c4ccc(=O)[nH]c4)c2Cl)CC3)c1` (stereo not drawn) [Example 56] gave an IC50 of 12 nM. As for `C[C@@H]1c2nn(C)c(-c3cc(Cl)cc(C4(S(C)(=O)=O)CC4)c3)c2CCN1C(=O)c1cc(F)cc(-c2ccc(=O)[nH]c2)c1Cl` [Example 74, 5-[2-chloro-3-[(7R)-3-[3-chloro-5-(1-methylsulfonylcyclopropyl)phenyl]-2,7-dimethyl-5,7-dihydro-4H-pyrazolo[3,4-c]pyridine-6-carbonyl]-5-fluoro-phenyl]-1H-pyridin-2-one], the midpoint of inhibition, the IC50, lay at 293 nM. Compound `C[C@@H]1c2nn(C)c(-c3cc(F)cc(F)c3)c2CCN1C(=O)c1cc(F)cc(CCc2cn[nH]c2)c1Cl` [Example 103, [2-chloro-5-fluoro-3-[2-(1H-pyrazol-4-yl)ethyl]phenyl]-[(7R)-3-(3,5-difluorophenyl)-2,7-dimethyl-5,7-dihydro-4H-pyrazolo[3,4-c]pyridin-6-yl]methanone] gave an IC50 of 440 nM. Compared with the last compound, the IC50 is about 1.5-fold higher.

In the case of `C[C@@H]1c2nn(C)c(-c3cc(F)cc(F)c3)c2CCN1C(=O)c1cc(F)cc(N2CC3(C2)CS(=O)(=O)C3)c1Cl` [Example 21, [2-Chloro-3-(2,2-dioxo-2λ^6-thia-6-azaspiro[3.3]heptan-6-yl)-5-fluoro-phenyl]-[(7R)-3-(3,5-difluorophenyl)-2,7-dimethyl-5,7-dihydro-4H-pyrazolo[3,4-c]pyridine-6-yl]methanone], the IC50 was 1430 nM.

Turning to `COc1cccc(C(=O)N2CCc3c(nn(C)c3-c3cc(Cl)cc(S(N)(=O)=O)c3)[C@@H]2C)c1Cl` [Example 4, 3-Chloro-5-[(7S)-6-(2-chloro-3-methoxy-benzoyl)-2,7-dimethyl-5,7-dihydro-4H-pyrazolo[3,4-c]pyridin-3-yl]benzenesulfonamide], the IC50 is 27 nM.
